Assays:
[1] = system: streptozocin-induced diabetic mouse; experiment: Streptozocin-induced diabetic mouse (Example 6); assay type: in vivo
Excerpt: The streptozocin-induced diabetic mouse is a convenient animal model of type 1 diabetes because researchers are able to chemically induce diabetes under controlled conditions rather than waiting for mice to become diabetic naturally or by forcing diabetes through prescribed obesity. Based on experience with the streptozocin model in the rat, a high degree of variability was anticipated for the induction of the disease in mice and therefore 60 mice were induced with streptozocin. Mice were injected intraperitoneally with streptozocin at 40 mg/kg in citrate buffer, pH4.5, on 5 consecutive days in an attempt to render them diabetic. A mouse was considered diabetic once its blood glucose level was greater than 16.7 mmol/L (300 mg/dL) for at least 1 week. If the blood glucose level of any animal became too high (>400 mg/dL) the animal was treated with an effective amount of insulin. In this example, 60 male mice, ranging from 6-8 weeks old at the outset of the study, were treated with streptozocin as described above. Those mice that were declared diabetic were then used to test the effectiveness of HIP2 as compared to other test agents.
Animals were group housed in compliance with the National Research Council “Guide for the Care and Use of Laboratory Animals”. The animals received 12 hours light/12 hours dark, except when room lights were turned on during the dark cycle to accommodate study procedures. Room temperature was maintained between 18 to 26° C. at all times. Relative humidity was maintained between 30-70% at all times. All animals were given access to Harlan Teklad Rodent Diet or equivalent and tap water via water bottle. Animals were allowed to acclimate to their new environment for a minimum of 7 days prior to first dosing.
Mice were randomly divided and assigned to study groups. Each study group was assigned treatment with one of 5 test agents (see Treatment section below). Prior to being treated, each mouse was tested for diabetes via monitoring their blood glucose levels. After confirmation that the mice were diabetic (blood glucose levels greater than 16.7 mmol/L (300 mg/dL) for at least 1 week) the mice were dosed with their respective test agent.
Each study group received doses of one of the following test agents: HIP2, HIP1, HIP, Hamster INGAP (SEQ ID NO:1) or isotonic saline “Vehicle” (0.9% NaCl) (negative control). Mice were given doses of their respective agent interperitoneally twice daily (am and pm, +/−2 hours for each administration) at 250 ug/dose, in 100 ul dose volume, for 28 consecutive days. Test agents were prepared once daily by dissolving the appropriate amount of test agent in isotonic saline to result in a 2.5 mg/ml solution. Blood glucose levels were tested every 3 days, at the same time each day, using a glucometer. If the blood glucose level in any animal became too high, the animal was treated with insulin. At the end of the treatment, all surviving animals were euthanized by CO2 asphyxiation following terminal blood collection. Blood samples were collected under CO2 cardiocentesis. The plasma was separated and then frozen at −80° C. For histological analysis, the pancreas from each mouse was removed and snap-frozen.
Blood glucose levels are measured every 3 days and tracked to evaluate differences in glucose levels.

[2] = system: human pancreatic ductal tissue cultures; experiment: Insulin production by ELISA, human ductal tissue cultures (Example 3); assay type: cell-based
Protocol: Samples are 5 μg total protein in duplicate and measured by ELISA assay.
Values are mean insulin units (of duplicate samples) as measured by ELISA assay.
Human pancreatic tissue was treated as described in Example 1 and Insulin production was measured by ELISA assay. FIGS. 5 and 6 show the results of this experiment to show a dose response and to again compare the effect of HIP2 on the two different fractions of tissue as compared to the hamster INGAP sequence and a scrambled negative peptide sequence. […] The results in FIG. 5 were generated using 5 μg of each peptide, while the results in FIG. 6 were acquired using 0.002 μg of each peptide.

[3] = streptozocin mice, 250 ug/dose i.p. twice daily, 28 days, vs other test agents

## HIP2: Human proIslet Peptide, fragment of human REG3A, in purified, synthetic, or recombinant form (SEQ ID NO:4) (IGLHDPTQGTEPNG; Fragment of naturally occurring human REG3 protein)
[1]
  time at which mice were completely insulin-free: ≤ 21 days
[1]; streptozocin mice
  glucose levels from baseline compared with control: significant reduction
[1]; [3]
  blood glucose levels: pronounced reduction
  insulinitis in the pancreas: decreased showing of insulinitis
[1]; streptozocin mice, compared to placebo
  insulin requirements (and rate of decrease): Significant reductions
[2]; ductal cultures
  effect of the higher concentration on insulin production: more profound effect
[2]; ductal cultures, after 10 days, Rosenberg protocol, 5 μg, vs SEQ ID NO:1 and SEQ ID NO:5
  insulin production (FIG. 5): increased insulin production
[2]; ductal cultures, two concentrations (3 μM and 1 mM), vs SEQ ID NO:1 and SEQ ID NO:5
  insulin production (FIG. 8B): increased insulin production
[2]; in each of the examples (ductal and islet fractions)
  induction of insulin production compared with INGAP or scrambled peptide: more effectively

From US8785400B2, “Methods and compositions relating to islet cell neogenesis” (CureDM Group Holdings, LLC, priority 2006, dated 2014)
